This is an account of results in patent publication US12247017B2, “Herbicidal uracilpyridines” (BASF SE, priority 2019, dated 2025).

What all share (settings): application rate 16 g/ha, post-emergence method, scale from 0 to 100
The subject of one experiment is ECHCG. The experiment is described as follows: greenhouse herbicidal activity, post-emergence, ECHCG. Type of experiment: in vivo, Echinocloa crus-galli. From the text: (§1) The seeds of the test plants were sown separately for each species. For the pre-emergence treatment, the active ingredients, which had been suspended or emulsified in water, were applied directly after sowing by means of finely distributing nozzles. The containers were irrigated gently to promote germination and growth and subsequently covered with transparent plastic hoods until the test plants had rooted. This cover caused uniform germination of the test plants, unless this had been impaired by the active ingredients. For the post-emergence treatment, the test plants were first grown to a height of 3 to 15 cm, depending on the plant habit, and only then treated with the active ingredients which had been suspended or emulsified in water. For this purpose, the test plants were either sown directly and grown in the same containers, or they were first grown separately as seedlings and transplanted into the test containers a few days prior to treatment. Depending on the species, the test plants were kept at 10-25° C. or 20-35° C., respectively. The test period extended over 2 to 4 weeks. During this time, the test plants were tended, and their response to the individual treatments was evaluated. Evaluation was carried out using a scale from 0 to 100. […]

The next experiment deals with CHEAL. The experiment is described as follows: greenhouse herbicidal activity, post-emergence, CHEAL. Type of experiment: in vivo, Chenopodium album.
Text: as §1

The subject of the next experiment is AMARE. As to the kind of experiment: greenhouse herbicidal activity, post-emergence, AMARE. Type of experiment: in vivo, Amaranthus retroflexus.
Text: as §1

In a further experiment the test system is SETVI. As to the kind of experiment: greenhouse herbicidal activity, post-emergence, SETVI. Type of experiment: in vivo, Setaria viridis.
Text: as §1

For the compound `COC(=O)CCNC(=O)C(C)Sc1nc(-n2c(=O)cc(C(F)(F)F)n(C)c2=O)c(F)cc1Cl` (stereo not shown) [Example 1, Methyl 3-[2-[[3-chloro-5-fluoro-6-[3-methyl-2,6-dioxo-4-(trifluoromethyl)pyrimidin-1-yl]-2-pyridyl]sulfanyl]propanoylamino]propanoate], in the experiment on ECHCG, the “herbicidal activity against ECHCG” value is “very good herbicidal activity (a very good herbicidal activity is given at values of at least 85)”. The “herbicidal activity against CHEAL” value in the experiment with CHEAL is reported as “very good herbicidal activity (a very good herbicidal activity is given at values of at least 85)”. In the experiment with AMARE, the “herbicidal activity against AMARE” value is reported as “very good herbicidal activity (a very good herbicidal activity is given at values of at least 85)”. For the same compound, in the experiment with SETVI, the “herbicidal activity against SETVI” value is reported as “very good herbicidal activity (a very good herbicidal activity is given at values of at least 85)”.
`CCOC(=O)CCNC(=O)COc1nc(-n2c(=O)cc(C(F)(F)F)n(C)c2=O)c(F)cc1Cl` [Example 2]: the “herbicidal activity against CHEAL” value in the experiment on CHEAL is reported as “very good herbicidal activity (a very good herbicidal activity is given at values of at least 85)”. Moreover, the “herbicidal activity against AMARE” value with AMARE was “very good herbicidal activity (a very good herbicidal activity is given at values of at least 85)”. Further, the “herbicidal activity against SETVI” value with SETVI is “very good herbicidal activity (a very good herbicidal activity is given at values of at least 85)”.
